Measurements reported in patent EP0331184A2, “Peptide equivalents of non-peptides and methods of design therefor” (THE BOARD OF TRUSTEES OF THE UNIVERSITY OF ALABAMA FOR ITS …, priority 1988, dated 1989).

Test system: dog kidney Na⁺K⁺ATPase
Experiment: ³H-ouabain radioreceptor assay
Format: binding
Settings: 10⁻⁴M concentrations
Protocol: The linked-enzyme, spectrophotometric assay measuring hydrolysis of ATP was performed as described in Example 1. The ³H-ouabain radioreceptor assay was performed in 0.5 ml of 50 mM Tris HCl (pH 7.4) containing 0.5 mM EDTA, 4 mM MgSO₄, 80 mM NaCl, 5mM ATP, 7.5 ug of dog kidney Na⁺K⁺ATPase (Sigma), 7.8 nCi of [21, 22-³H]-ouabain (specific activity = 15.6 Ci/mmol; Amersham), and 0.1% gelatin. Test samples were incubated for 2 hr at 37°C; ATP and ³H-ouabain were absent during the first hour but present during the second hour. The glycopeptide 1-39 used in these experiments was isolated to homogeneity as described in Fig. 6; eOLP refers to the partially purified, endogenous ouabain-like substance described in the text, and its amounts are expressed as ul of acetonitrile/TFA. Samples of these preparations, both in acetonitrile/0.1% trifluoroacetic acid, were evaporated under a stream of nitrogen gas and redissolved in 0.1% gelatin in preparation for assay. ³H-ouabain bound to Na⁺K⁺ATPase was recovered on Whatman GF/F glass microfiber filters using vacuum filtration. The filters had been soaked in 0.3% aqueous polyethylenimine for 2 hr immediately before filtration. The filters were added to scintillation fluid in vials and counted in a liquid scintillation spectrometer. […]

Substance | displacing activity in the ³H-ouabain radioreceptor assay
lysine vasopressin | no displacing activity
oxytocin | no displacing activity
